“And” between values parts separate entries of the source, which are not always exact repeats. Equal entries are not always repeated.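 48-hour exposure; five concentrations; linearly interpolated endpoints. GI50 = concentration required for 50% inhibition of growth. TGI: concentration producing complete growth inhibition.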
Legend:
Assay in all cases: DTP human tumour cell line panel, 48 h
A549 NSCLC = tested on: A549 NSCLC
NCI-H522 lung = tested on: NCI-H522 lung
RXF 393 renal = tested on: RXF 393 renal
SK-MEL-2 melanoma = tested on: SK-MEL-2 melanoma
SK-MEL-5 melanoma = tested on: SK-MEL-5 melanoma
SR leukemia = tested on: SR leukemia
UACC-62 melanoma = tested on: UACC-62 melanoma
IGROV1 ovarian = tested on: IGROV1 ovarian
MDA-MB-231 breast = tested on: MDA-MB-231 breast
T-47D breast = tested on: T-47D breast

SMILES	TGI (A549 NSCLC)	TGI (NCI-H522 lung)	TGI (RXF 393 renal)	TGI (SK-MEL-2 melanoma)	TGI (SK-MEL-5 melanoma)	TGI (SR leukemia)	TGI (UACC-62 melanoma)	TGI (IGROV1 ovarian)	TGI (MDA-MB-231 breast)	TGI (T-47D breast)	GI50 (SR leukemia)	GI50 (IGROV1 ovarian)	GI50 (UACC-62 melanoma)
COc1cccc(NC(=O)CSc2nnc(-c3ccc(N=Cc4ccc(Cl)cc4)cc3)o2)c1	69.6 µM	32.9 µM	34 µM	39.8 µM	34.6 µM	> 100 µM	35.1 µM						
O=C(O)/C=C(/CC(=O)O)C(=O)O	43.2 µM	35.7 µM	34.8 µM	41.9 µM	44.1 µM		36.7 µM	42.2 µM	48 µM	48.1 µM			
CC[C@]12C=CCN3CCC4(c5cc(N=Nc6ccccc6)c(OC)cc5N(C)[C@H]4[C@@](O)(C(=O)OC)[C@@H]1OC(C)=O)[C@@H]32 (some centres not stated)	40.9 µM	33 µM	30.9 µM	31.4 µM	44.2 µM	45.5 µM	29.4 µM	32.5 µM	31.6 µM				
Cc1cc(Cc2c(F)c(F)c(Cc3cc(C)no3)c(F)c2F)on1	25.8 µM	> 100 µM	> 100 µM	> 100 µM	> 100 µM		> 100 µM	> 100 µM	> 100 µM	> 100 µM			
CC1=CC(O)C(O)C2(C)C1CC1OC(=O)C(O)C3C(C)C(O)C4(O)OCC13C42 (configuration not stated)	387 µM	214 µM	51 µM	196 µM	142 µM		341 µM	224 µM					
NC(Cc1cc(I)c(O)c(I)c1)C(=O)O (configuration not stated)	> 500 µM	130 µM	449 µM	> 500 µM	> 500 µM		> 357 µM	> 500 µM					
O=c1[nH]c(=O)n(C2OC(COP(=O)(O)OP(=O)(O)O)C(O)C2O)cc1F (configuration not stated)	> 41.4 µM	34.3 µM	13.8 µM	> 50 µM	> 50 µM	> 50 µM	> 42.6 µM	> 50 µM					
CCOC(=O)C(C)(C)Oc1ccc2c(=O)cc(-c3ccccc3)oc2c1	59 µM	28.5 µM	78.1 µM	31.5 µM	28.2 µM		33.7 µM	78.4 µM					
COC(=O)c1ccc(-c2nc(C#N)c(N)o2)cc1	> 100 µM	> 100 µM	> 100 µM	> 100 µM	> 100 µM	> 100 µM		> 100 µM	85.8 µM	> 100 µM			
CC1(O)C=CC2CCC1C2O (configuration not stated)	> 100 µM	> 100 µM	> 100 µM	> 100 µM	> 100 µM	50.2 µM	> 100 µM	> 100 µM					
CCCn1c(C23CC4CC(CC(C4)C2)C3)nc2ccc(Cl)cc2c1=O	> 100 µM	> 100 µM	29 µM	> 100 µM	> 100 µM		> 100 µM	> 100 µM	> 100 µM	> 100 µM			
Cc1ccc(C(=O)N(C(C)C)C(C)C)cc1N=NN(C)C	> 100 µM	43.2 µM		> 100 µM	> 100 µM	> 100 µM	> 100 µM	> 100 µM	> 100 µM	> 100 µM			
O=C(c1ccc2ccccc2c1)C1S(=O)(=O)OCCOS1(=O)=O	> 100 µM			> 100 µM	> 100 µM	> 100 µM							
CN1CCn2c(Br)ccc2C1=O	> 100 µM	> 100 µM	> 100 µM	> 100 µM		> 100 µM	> 100 µM	> 100 µM					
CCCCCc1cc2c(cc1O)CC[C@@H]1[C@@H]2CC[C@]2(C)[C@@H](O)CC[C@@H]12	37.9 µM	42.7 µM	38.3 µM	43.5 µM	34.7 µM		35.4 µM	36.9 µM	33.3 µM	55.5 µM			
COc1cc(C2C3=C(CCC3=O)Oc3cc4c(cc32)OCO4)cc(OC)c1OC (configuration not stated)	> 100 µM		> 100 µM		15.2 µM		> 100 µM	> 100 µM					
S=C(N/N=C\C=N/NC(=S)N1CCCCCC1)N1CCCCCC1	> 100 µM	> 100 µM	90.9 µM	> 100 µM	> 100 µM		> 100 µM	> 100 µM	> 100 µM	21.8 µM			
CC1(C)COC(c2cccc(C3=NC(C)(C)CO3)c2Br)=N1	> 100 µM		> 100 µM	> 100 µM	> 100 µM	> 100 µM	> 100 µM	> 100 µM	> 100 µM	> 100 µM			
CC1(C)O[C@@H](CO)[C@H]([C@@]23OC[C@H]4OC(C)(C)OC4[C@@H]2OC(C)(C)O3)O1 (some centres not stated)	> 100 µM	> 100 µM	> 100 µM	> 100 µM	> 100 µM	> 100 µM		> 100 µM	> 100 µM	> 100 µM			
CN(C(=O)C1(C(=O)C=[N+]=[N-])CC1)c1ccccc1	> 100 µM	> 100 µM	> 100 µM	> 100 µM	> 100 µM	> 100 µM	> 100 µM	> 100 µM	> 100 µM				
CCOc1ccc2[nH]c3c(C)c4cc[n+](C)cc4c(C)c3c2c1	43.9 µM and > 100 µM	3.05 µM and 3.57 µM	> 100 µM	2.53 µM and 8.79 µM	4.37 µM and 4.31 µM	13.7 µM and > 62.5 µM	5.48 µM and 12.3 µM	32 µM and > 44.7 µM			1.13 µM and 2.69 µM		
CC(C)(CO)CNc1nc(N)nc(Cl)c1N	> 100 µM	> 100 µM	> 100 µM	> 100 µM	> 100 µM		> 100 µM	> 100 µM	> 100 µM	> 100 µM			
c1ccc(CCN2CCCCCC2)nc1	> 100 µM	> 100 µM	> 100 µM	> 100 µM	> 100 µM		> 100 µM	> 100 µM	> 100 µM	> 100 µM			
CC(C)(C)N=C1CC(C)(C)c2ccccc2C(=Nc2ccccc2)S1	> 100 µM	46.7 µM	> 100 µM	99 µM	59.2 µM		> 100 µM	> 100 µM					
OC(c1ccc(Cl)cc1)(c1ccc(Cl)cc1)C(O)(c1ccc(Cl)cc1)c1ccc(Cl)cc1							> 100 µM	> 100 µM				1.97 µM	2.41 µM

Reference: PubChem BioAssay (NCI)
